Assay results: patent publication US20220202799A1, “PHARMACEUTICAL FORMULATIONS CONTAINING P2Y14 ANTAGONISTS” (priority 2019, published 2022)
“And” between values parts separate entries of the source, which are not always exact repeats. Identical values can stand only once. Like-named read-outs stand apart in the source and are kept apart here.

Experiments:
[1] = Urine PPTN concentration after single bolus intravenous injection; type: in vivo; conditions: male rats; single bolus intravenous injection 0.85, 2.9 or 8.5 mg/kg
Description: The pharmacokinetics of PPTN (KB-1801) in male rats receiving single bolus intravenous injections of SBECD-containing solutions were analyzed. Three cohorts of four rats each were given a single dose of PPTN (KB-1801) at 0.85 mg/kg, 2.9 mg/kg, or 8.5 mg/kg in 1 mL dosing volume.

[2] = Urine concentrations, 72-hour continuous intravenous infusion; type: in vivo, Sprague-Dawley rats; conditions: individual animals; for Total amount in urine: all intervals
Description: The safety and pharmacokinetics of PPTN (KB-1801) in rats receiving continuous intravenous injections of SBECD-containing solutions were analyzed. Three cohorts of six male and six female rats each were given continuous intravenous infusion of PPTN (KB-1801) at 10 mg/kg/day, 30 mg/kg/day or 100 mg/kg/day in a dosing solution containing PPTN at 0.25 mg/mL, 0.75 mg/mL or 2.5 mg/mL and SBECD at about 3.8%. Dosing volume was 40 mIkg/day.

[3] = Solubility of PPTN at pH ranges suitable for intravenous injection; type: physicochemical
Description: The solubility of PPTN at pH ranges suitable for intravenous injection was analyzed. PPTN (HCl salt) was dissolved in DMSO to make a stock solution, and the stock solution was diluted into various aqueous solutions. […] The solutions were then adjusted to achieve a pH ≥5.0, and the solutions were observed again.

[4] = Plasma concentrations during 24-hour continuous intravenous infusion; type: in vivo, Sprague-Dawley rats; conditions: for Female/Male C24h Ratio: 24-hour intravenous infusion; for concentration at 1 h / concentration at 2 h / concentration at 4 h / concentration at 6 h / concentration at 8 h / concentration at 24 h: female, Sprague-Dawley, rat, plasma, iv, female Sprague-Dawley rats
Description: The safety and pharmacokinetics of PPTN (KB-1801) in rats receiving continuous intravenous injections of SBECD-containing solutions were analyzed. Three cohorts of six male and six female rats each were given continuous intravenous infusion of PPTN (KB-1801) at 10 mg/kg/day, 30 mg/kg/day or 100 mg/kg/day in a dosing solution containing PPTN at 0.25 mg/mL, 0.75 mg/mL or 2.5 mg/mL and SBECD at about 3.8%. Dosing volume was 40 mIkg/day. [table]

[5] = 72-hour IV infusion 10 mg/kg/day, male rats, interval 0-4 h
[6] = 72-hour IV infusion 10 mg/kg/day, male rats, interval 4-9 h
[7] = 72-hour IV infusion 10 mg/kg/day, male rats, interval 20-24 h
[8] = 72-hour IV infusion 10 mg/kg/day, male rats, interval 44-48 h
[9] = 72-hour IV infusion 10 mg/kg/day, male rats, interval 68-72 h
[10] = 72-hour IV infusion 10 mg/kg/day, male rats, interval 92-96 h
[11] = 10 mg/kg, 24-hour intravenous infusion at 10 mg/kg, read-out: Plasma concentration, Mean
[12] = 10 mg/kg, 24-hour intravenous infusion at 10 mg/kg, read-out: Plasma concentration, individual animal
[13] = 30 mg/kg, 24-hour intravenous infusion at 30 mg/kg, read-out: Plasma concentration, Mean
[14] = 30 mg/kg, 24-hour intravenous infusion at 30 mg/kg, read-out: Plasma concentration, individual animal

SMILES: O=C(O)c1cc(-c2ccc(C3CCNCC3)cc2)c2ccc(-c3ccc(C(F)(F)F)cc3)cc2c1 [KB-1801, 4-[4-(piperidin-4-yl)phenyl]-7-[4-(trifluoromethyl)phenyl]-2-naphthoic acid]
- Urine concentration compared with plasma [1]: in excess of plasma concentrations
- Total amount in urine ([2]; 72-hour IV infusion 10 mg/kg/day, female rats): 27.3 µg and 16.4 µg and 10.5 µg and 18.5 µg and 20.9 µg and 29.4 µg
- Total amount in urine ([2]; 72-hour IV infusion 10 mg/kg/day, male rats): 54.2 µg and 46.1 µg and 62.5 µg and 83.7 µg and 74.4 µg and 60.9 µg
- Amount in urine [2, 5]: 6.09 µg and 4.08 µg
- Urine Conc. [2, 5]: 6.09 µg/mL and 8.16 µg/mL and 3.50 µg/mL and 7.91 µg/mL
- Amount in urine [2, 6]: 11.5 µg and 5.46 µg and 8.50 µg and 6.95 µg
- Urine Conc. [2, 6]: 7.64 µg/mL and 5.46 µg/mL and 17.0 µg/mL and 6.95 µg/mL and 15.8 µg/mL
- Amount in urine [2, 7]: 20.7 µg and 10.0 µg and 7.20 µg and 30.9 µg
- Urine Conc. [2, 7]: 20.7 µg/mL and 20.1 µg/mL and 24.0 µg/mL and 10.3 µg/mL and 19.4 µg/mL
- Amount in urine [2, 8]: 2.48 µg and 14.1 µg and 22.9 µg
- Urine Conc. [2, 8]: 24.8 µg/mL and 14.1 µg/mL and 45.9 µg/mL and 13.7 µg/mL
- Amount in urine [2, 9]: 19.3 µg and 23.2 µg and 28.5 µg and 22.7 µg
- Urine Conc. [2, 9]: 19.3 µg/mL and 23.2 µg/mL and 28.5 µg/mL and 22.7 µg/mL and 20.9 µg/mL
- Amount in urine [2, 10]: 0.07 µg and 0.15 µg and 1.23 µg and 0.08 µg and 0.18 µg
- Urine Conc. [2, 10]: 0.13 µg/mL and 0.10 µg/mL and 0.62 µg/mL and 0.20 µg/mL and 0.09 µg/mL and 0.07 µg/mL
- Total amount in urine ([2]; 72-hour IV infusion 30 mg/kg/day, female rats): 75.7 μg and 78.9 μg (2×) and 66.9 μg and 80.5 μg and 131.7 μg
- Total amount in urine ([2]; 72-hour IV infusion 30 mg/kg/day, male rats): 188.0 µg and 165.1 µg and 250.3 µg and 108.4 µg and 87.4 µg and 332.4 µg
- Total amount in urine ([2]; 72-hour IV infusion 100 mg/kg/day, female rats): 251.8 µg and 191.6 µg and 78.7 µg and 198.3 µg and 151.4 µg and 353.9 µg
- Total amount in urine ([2]; 72-hour IV infusion 100 mg/kg/day, male rats): 337.1 µg and 155.1 µg and 785.2 µg and 453.6 µg and 537.2 µg and 438.9 µg
- Solution appearance at 24 hours ([3]; 0.015 mg/mL (~29 μM), 1.5 mg DMSO stock solution diluted 100x in water, pH 4-5): Clear
- Remarks when pH adjusted to 5-5.5 ([3]; 1.0 mg/mL, DMAc/Water (10/90, v/v), initial pH ~2): Became cloudy
- Solution appearance at 24 hours ([3]; 5.0 mg/mL, 1.5 mg DMSO stock solution diluted 100x in PBS (20 mM), pH 5-6): Hazy
- Remarks when pH adjusted to 5-5.5, after sonication ([3]; 5.0 mg/mL, DMAc/Water (10/90, v/v) with ~0.1% Tween 80, after sonication): became clear
- Remarks when pH adjusted to 5-5.5 ([3]; 5.0 mg/mL, DMAc/Water (10/90, v/v) with ~0.1% Tween 80, initial pH 1-2): Became slightly cloudy;
- Remarks when pH adjusted to 5-5.5 ([3]; 5.0 mg/mL, DMAc/Water (10/90, v/v), initial pH 1-2): Became very cloudy
- Remarks when pH adjusted to 5-5.5 ([3]; 5.0 mg/mL, NMP/Water (10/90, v/v), initial pH 1-2): Became very cloudy
- Remarks when pH adjusted to 5-5.5 ([3]; 5.0 mg/mL, Propylene Glycol/Water (10/90, v/v), initial pH 1-2): Became very cloudy
- Female/Male C24h Ratio ([4]; Group 6, 10 mg/kg): 1.36
- Female/Male C24h Ratio ([4]; Group 7, 30 mg/kg): 0.88
- Female/Male C24h Ratio ([4]; Group 8, 100 mg/kg): 0.93
- concentration at 1 h [4, 11]: 216 ng/mL
- concentration at 2 h [4, 11]: 281 ng/mL
- concentration at 2 h [4, 12]: 383 ng/mL
- concentration at 4 h [4, 11]: 426 ng/mL
- concentration at 4 h [4, 12]: 445 ng/mL
- concentration at 6 h [4, 11]: 569 ng/mL
- concentration at 6 h [4, 12]: 726 ng/mL
- concentration at 8 h [4, 11]: 526 ng/mL
- concentration at 8 h [4, 12]: 678 ng/mL
- concentration at 24 h [4, 11]: 954 ng/mL
- concentration at 24 h [4, 12]: 753 ng/mL
- concentration at 1 h [4, 13]: 641 ng/mL
- concentration at 1 h [4, 14]: 603 ng/mL
- concentration at 2 h [4, 13]: 1430 ng/mL
- concentration at 2 h [4, 14]: 1950 ng/mL
- concentration at 4 h [4, 13]: 1530 ng/mL
- concentration at 4 h [4, 14]: 1250 ng/mL
- concentration at 6 h [4, 13]: 1640 ng/mL
- concentration at 6 h [4, 14]: 1390 ng/mL
- concentration at 8 h [4, 13]: 1730 ng/mL
- concentration at 8 h [4, 14]: 1740 ng/mL
